Source: patent publication US20240216395A1, “19-NOR C3,3-DISUBSTITUTED C21 -N-PYRAZOLYL STEROID FOR USE IN TREATING MAJOR DEPRESSIVE DISORDER AND […]” (priority 2021, published 2024)
“And” between values parts separate entries of the source, which are not always exact repeats. Equal entries are not always repeated. Where two headings read alike, the source gives them in different places.

Assays:
[1] = Abuse potential main study: plasma pharmacokinetics after a single oral dose; format: in vivo, human; settings: for Tmax / half-life / AUC(0-t) / Cmax: human, plasma
Procedure: Safety and tolerability endpoints included the frequency and severity of AEs and SAEs, the change from baseline in clinical laboratory assessments, vital signs, and ECG, and suicidality assessed by the Columbia-Suicide Severity Rating Scale (C-SSRS).
During the treatment phase, PK measures were assessed predose and at multiple time points, from 0.5 to 24 hours after dosing. Blood samples collected for plasma analyses were kept frozen (approximately −70° C. to −80° C.) until analysis. The quantification of the Compound (1) plasma concentration was performed by a bioanalytical laboratory (PRA Health Sciences, Lenexa, Kansas) using a validated liquid chromatography with a tandem mass spectroscopic method. The validated range of the assay was 1.00 to 500 ng/ml.
All PK analyses were based on the PK analysis set. Descriptive statistics included sample size, arithmetic mean, standard deviation, arithmetic coefficient of variation (CV), first quartile, median, and the minimum and maximum values […]. For summary statistics, PK concentration values below the limit of quantification were treated as zero. For calculating PK parameters, PK concentration values of zero that occurred prior to or after the first quantifiable concentration were imputed as zero or missing, respectively. The Compound (1) plasma PK parameters were estimated for each participant using noncompartmental analysis (Phoenix® WinNonlin® version 8.0 or later). The estimation of the terminal-elimination rate constant (λz) and λz-derived PK parameters were dependent upon inspection of PK data and a minimum of three time points in the terminal phase with adjusted R2 ≥0.8.

patients with MDD = assay: Phase 3 clinical trial of Compound (1) 30 mg in MDD : TEAEs; format: in vivo, human; settings: previous Phase 3 clinical trial
From the text: The study design and results, if applicable, of the clinical trials identified by the NCT numbers are each incorporated by reference herein in its entirety.
(§1) The majority of patients receiving Compound (1) and experiencing a TEAE reported TEAEs mild and moderate in severity: clinical trial of Example 4 94%, Phase 2 clinical trial conducted by Applicant 100%, previous Phase 3 clinical trial conducted by Applicant 98%, and clinical trial of Example 1 95.0%.

[2] = system: adult subjects with major depressive disorder (MDD); assay: Phase 3 MDD study (NCT04442490): safety and tolerability (TEAEs, C-SSRS, PWC-20); format: in vivo, human
Procedure: • Incidence and severity of adverse events/serious adverse events • Changes from baseline in clinical laboratory measures, vital signs, and electrocardiograms (ECGs) • Suicidal ideation and behavior using the Columbia Suicide Severity Rating Scale (C-SSRS) • Potential withdrawal symptoms using the 20-item Physician Withdrawal Checklist (PWC-20)
Safety and tolerability of study drug was evaluated by incidence of adverse events/serious adverse events, vital signs, clinical laboratory evaluations, and 12-lead ECG.
Suicidality was monitored by the C-SSRS. Potential withdrawal symptoms after discontinuation of Compound (1) was assessed using the PWC-20.
Safety and tolerability were evaluated by incidence and severity of adverse events (AEs), serious adverse events (SAEs), changes from baseline in clinical laboratory evaluations, vital signs, and 12-lead electrocardiography. Suicidality was monitored by the Columbia Suicide Severity Rating Scale (C-SSRS). The Physician Withdrawal Checklist-20 total score (PWC-20TS) was used to monitor for the presence of potential withdrawal symptoms following discontinuation of Compound (1)-50 mg.

[3] = aqueous solution formulation (Hoffmann 2020); cited from earlier work
[4] = system: synaptic and extrasynaptic GABAA receptors; settings: in vitro; cited from earlier work
patients with PPD or MDD = assay: Most common TEAEs across clinical trials in PPD or MDD: overall ranges; format: in vivo, human; settings: 30 or 50 mg (N = 583)
From the text: as §1

[5] = 50 mg (n = 268), through Day 42

C[C@@]1(O)CC[C@H]2[C@H](CC[C@@H]3[C@@H]2CC[C@]2(C)[C@@H](C(=O)Cn4cc(C#N)cn4)CC[C@@H]32)C1 [Compound (1), 1-(2-((3R,5R,8R,9R,10S,13S,14S,17S)-3-hydroxy-3,13-dimethylhexadecahydro-1H-cyclopenta[a]phenanthren-17-yl)-2-oxoethyl)-1H-pyrazole-4-carbonitrile]
AUC0-24, geometric mean ([1]; 60 mg single oral dose): 0.982 µg·h/mL | T½ values, range over doses ([1]; 30, 60, 90 mg, capsule): 10 to 11 h | Tmax ([1]; oral, 90 mg, 30, 60, 90 mg, capsule, read-out: Tmax (median), all three doses): 5.1 h | half-life ([1]; oral, 90 mg, 30, 60, 90 mg, capsule, read-out: T½ values, range over doses): 9.92 to 10.9 h | AUC(0-t) ([1]; oral, 30, 60, 90 mg, read-out: AUC0-24 values, range over doses): 0.52 to 1.33 µg·h/mL | Cmax ([1]; oral, 30, 60, 90 mg, read-out: Cmax geometric mean values, range over doses): 0.0555 to 0.123 µg/mL | half-life ([1]; po, 30 mg, 30 mg single oral dose (n = 66), read-out: T½, geometric mean (converted)): 10.1 h | Tmax ([1]; po, 30 mg, 30 mg single oral dose, read-out: Tmax, median): 5.1 h | half-life ([1]; po, 60 mg, 60 mg single oral dose (n = 60), read-out: T½, geometric mean (converted)): 9.9 h | Tmax ([1]; po, 60 mg, 60 mg single oral dose, read-out: Tmax, median): 5.1 h | half-life ([1]; po, 90 mg, 90 mg single oral dose (n = 62), read-out: T½, geometric mean (converted)): 10.9 h | Tmax ([1]; po, 90 mg, 90 mg single oral dose, read-out: Tmax, median): 5.1 h | Cmax ([1]; 30 mg single oral dose (n = 65), read-out: Cmax, geometric mean): 0.0555 µg/mL | AUC(0-t) ([1]; 30 mg single oral dose, read-out: AUC0-24, geometric mean): 0.52 µg·h/mL | Cmax ([1]; 60 mg single oral dose (n = 66), read-out: Cmax, geometric mean): 0.0976 µg/mL | Cmax ([1]; 90 mg single oral dose (n = 67), read-out: Cmax, geometric mean): 0.123 µg/mL | AUC(0-t) ([1]; 90 mg single oral dose, read-out: AUC0-24, geometric mean): 1.33 µg·h/mL | Patients with a TEAE whose TEAEs were mild and moderate in severity (patients with MDD): 98% | AEs of loss of consciousness, weight gain, sexual dysfunction, euphoria ([2]; 50 mg): no loss of consciousness, weight gain, sexual dysfunction, or euphoria reported | Overall tolerability ([2]; 50 mg): generally well-tolerated | TEAE Alanine aminotransferase increased [2, 5]: 3 (1.1%) n (%) | TEAE Dry mouth [2, 5]: 10 (3.7%) n (%) | TEAE Tremor [2, 5]: 8 (3.0%) n (%) | Any TEAE ([2]; 50 mg, ADT use at baseline=Yes (N = 79)): 50 (63.3) n (%) | TEAE Abnormal dreams ([2]; 50 mg, ADT=Yes (N = 79)): 2 (2.5) n (%) | TEAE Alanine aminotransferase increased ([2]; 50 mg, ADT=Yes (N = 79)): 2 (2.5) n (%) | TEAE Diarrhea ([2]; 50 mg, ADT=Yes (N = 79)): 4 (5.1) n (%) | TEAE Disturbance in attention ([2]; 50 mg, ADT=Yes (N = 79)): 0 n (%) | TEAE Dizziness ([2]; 50 mg, ADT=Yes (N = 79)): 10 (12.7) n (%) | TEAE Dry mouth ([2]; 50 mg, ADT=Yes (N = 79)): 4 (5.1) n (%) | TEAE Flatulence ([2]; 50 mg, ADT=Yes (N = 79)): 0 n (%) | TEAE Gastroenteritis ([2]; 50 mg, ADT=Yes (N = 79)): 2 (2.5) n (%) | TEAE Headache ([2]; 50 mg, ADT=Yes (N = 79)): 9 (11.4) n (%) | TEAE Insomnia ([2]; 50 mg, ADT=Yes (N = 79)): 2 (2.5) n (%) | TEAE Nausea ([2]; 50 mg, ADT=Yes (N = 79)): 1 (1.3) n (%) | TEAE Restlessness ([2]; 50 mg, ADT=Yes (N = 79)): 2 (2.5) n (%) | TEAE Sedation ([2]; 50 mg, ADT=Yes (N = 79)): 7 (8.9) n (%) | TEAE Somnolence ([2]; 50 mg, ADT=Yes (N = 79)): 9 (11.4) n (%) | TEAE Suicidal ideation ([2]; 50 mg, ADT=Yes (N = 79)): 3 (3.8) n (%) | TEAE Tremor ([2]; 50 mg, ADT=Yes (N = 79)): 3 (3.8) n (%) | TEAE Upper respiratory tract infection ([2]; 50 mg, ADT=Yes (N = 79)): 2 (2.5) n (%) | TEAE Urinary tract infection ([2]; 50 mg, ADT=Yes (N = 79)): 2 (2.5) n (%) | C-SSRS: No suicidal ideation/behavior ([2]; 50 mg, Day 8 (N = 255)): 237 (92.9) n (%) | C-SSRS: Suicidal behavior ([2]; 50 mg, Day 8 (N = 255)): 0 n (%) | C-SSRS: Suicidal ideation ([2]; 50 mg, Day 8 (N = 255)): 18 (7.1) n (%) | C-SSRS: No suicidal ideation/behavior ([2]; 50 mg, Day 15 (N = 248)): 229 (92.3) n (%) | C-SSRS: Suicidal behavior ([2]; 50 mg, Day 15 (N = 248)): 0 n (%) | C-SSRS: Suicidal ideation ([2]; 50 mg, Day 15 (N = 248)): 19 (7.7) n (%) | PWC-20 total score change from first assessment (CFFA), mean (SD) ([2]; 50 mg, Day 18): −1.2 (4.3) and −1.2 (4.32) | Withdrawal symptoms by PWC-20 ([2]; 50 mg, Day 18 or 21): No signals for withdrawal symptoms | PWC-20 total score change from first assessment (CFFA), mean (SD) ([2]; 50 mg, Day 21): −0.3 (4.6) and −0.3 (4.37) | C-SSRS: No suicidal ideation/behavior ([2]; 50 mg, Day 42 (N = 240)): 223 (92.9) n (%) | C-SSRS: Suicidal behavior ([2]; 50 mg, Day 42 (N = 240)): 0 n (%) | C-SSRS: Suicidal ideation ([2]; 50 mg, Day 42 (N = 240)): 17 (7.1) n (%) | Suicidal ideation/behavior signal by C-SSRS ([2]; 50 mg, throughout the study): No signal of increased suicidal ideation/behavior | Patients with a TEAE whose TEAEs were mild and moderate in severity ([2]; clinical trial of Example 1): 95.0% | T½ values reported by a prior study [3]: 14 to 19 h | GABAA receptor binding and current potentiation [4]: bind to both synaptic and extrasynaptic GABAA receptors, potentiating both phasic and tonic currents | Any TEAE, overall range across trials (patients with PPD or MDD): 53.3-60.3% | Diarrhea, overall range across trials (patients with PPD or MDD): 0-6.4% | Dizziness, overall range across trials (patients with PPD or MDD): 5.7-13.8% | Fatigue, overall range across trials (patients with PPD or MDD): 1.1-6.8% | Headache, overall range across trials (patients with PPD or MDD): 6.3-17.8% | Nausea, overall range across trials (patients with PPD or MDD): 3.6-11.1% | Sedation, overall range across trials (patients with PPD or MDD): 4.4-7.5% | Somnolence, overall range across trials (patients with PPD or MDD): 6.7-15.4% | URTI, overall range across trials (patients with PPD or MDD): 0-7.7%
